In ChEMBL document CHEMBL4396870, “Pharmacological Chaperones for the Treatment of α-Mannosidosis” (J Med Chem, 2019) one finds Activity data, which are given here for two molecules.

SMILES strings stand for the structures. Residue numbers refer to the chain shown, from its start.

For assay [1], the system named is T1, Lysosomal alpha-mannosidase (Homo sapiens), O00754 [H72L].
T1 sequence (whole entry): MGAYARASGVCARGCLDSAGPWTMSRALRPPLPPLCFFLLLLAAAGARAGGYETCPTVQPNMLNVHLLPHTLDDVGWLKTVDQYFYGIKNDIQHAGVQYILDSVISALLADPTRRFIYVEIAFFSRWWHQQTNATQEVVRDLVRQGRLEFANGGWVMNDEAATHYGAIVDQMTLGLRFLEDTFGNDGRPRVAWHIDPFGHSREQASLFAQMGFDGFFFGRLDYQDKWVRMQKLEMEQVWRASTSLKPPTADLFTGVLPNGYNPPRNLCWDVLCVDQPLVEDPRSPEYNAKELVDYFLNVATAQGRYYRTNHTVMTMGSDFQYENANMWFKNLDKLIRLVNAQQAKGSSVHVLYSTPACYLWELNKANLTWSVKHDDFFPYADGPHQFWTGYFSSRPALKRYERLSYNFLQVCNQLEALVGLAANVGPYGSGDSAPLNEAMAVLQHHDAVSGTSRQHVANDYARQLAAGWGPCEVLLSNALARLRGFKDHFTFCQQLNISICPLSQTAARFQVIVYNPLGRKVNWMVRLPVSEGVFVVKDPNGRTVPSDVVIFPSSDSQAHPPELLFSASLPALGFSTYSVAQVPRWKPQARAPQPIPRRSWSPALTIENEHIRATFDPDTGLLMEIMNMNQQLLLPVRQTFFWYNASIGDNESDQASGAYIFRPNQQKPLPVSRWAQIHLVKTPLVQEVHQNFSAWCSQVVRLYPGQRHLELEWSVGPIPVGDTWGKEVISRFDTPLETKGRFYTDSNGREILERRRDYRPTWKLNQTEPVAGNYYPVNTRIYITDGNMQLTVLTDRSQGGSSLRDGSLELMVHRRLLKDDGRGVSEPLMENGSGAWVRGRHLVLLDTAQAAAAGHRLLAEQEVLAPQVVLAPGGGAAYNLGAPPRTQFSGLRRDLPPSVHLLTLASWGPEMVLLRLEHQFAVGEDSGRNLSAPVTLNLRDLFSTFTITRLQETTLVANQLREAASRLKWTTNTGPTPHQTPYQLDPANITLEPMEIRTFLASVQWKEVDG
Nature of the assay: Chaperone activity at human Lysosomal alpha-mannosidase H72L mutant transfected in human […] knockout HAP1 cells assessed as enzyme activity enhancement at 0.2 uM incubated for 96 hrs relative to control.

Assay [2] deals with T2, Lysosomal alpha-mannosidase (Homo sapiens), O00754 [L352P].
T2 sequence (whole entry): T1 sequence (whole entry) with L72H, L352P
The assay is described as follows: Chaperone activity at human Lysosomal alpha-mannosidase L352P mutant transfected in human […] knockout HAP1 cells assessed as enzyme activity enhancement at 2 uM incubated for 96 hrs relative to control.

On to `CC(C)(C)OC(=O)NCCCCCCCCCN[C@@H]1[C@@H](O)[C@@H](O)[C@H](O)[C@H]2COC(=O)N21`, for which the Activity in assay [1] came out at 0%; in assay [2], 8%.

With `COC[C@H]1O[C@@H]2O[C@H]3[C@H](OC)[C@@H](OC)[C@@H](O[C@H]4[C@H](OC)[C@@H](OC)[C@@H](O[C@H]5[C@H](OC)[C@@H](OC)[C@@H](O[C@H]6[C@H](OC)[C@@H](OC)[C@@H](O[C@H]7[C@H](OC)[C@@H](OC)[C@@H](O[C@H]8[C@H](OC)[C@@H](OC)[C@@H](O[C@H]1[C@H](OC)[C@H]2OC)O[C@@H]8COC)O[C@@H]7COC)O[C@@H]6COC)O[C@@H]5COCc1cn(CCCCCCN[C@@H]2[C@@H](O)[C@@H](O)[C@H](O)[C@H]5COC(=O)N52)nn1)O[C@@H]4COC)O[C@@H]3COC`, the Activity came out at 48% in assay [1] and 6% in assay [2].
